Experimental data published in patent US11420922B2, “Hydroxylated tropolone inhibitors of nucleotidyl transferases in herpesvirus and Hepatitis B and uses therefor” (Saint Louis University, priority 2015, dated 2022).
“Also recorded” adds a separate entry of the source. Where two headings read alike, the source gives them in different places.

Columns and labels:
HSV-1 = assay: Anti-HSV-1 replication assay in Vero cells, titers by plaque assay; type: cell-based, herpes simplex virus 1; settings: Human alphaherpesvirus 1, Vero; for EC50 / log reduction at 5 µM / log reduction at 50 µM: 24 h; for EC50: read-out: HSV-1 EC50; for log reduction at 5 µM: read-out: HSV-1 Log suppression 5 μM; for log reduction at 50 µM: read-out: HSV-1 Log suppression 50 μM
Protocol: Vero cells were maintained in Dulbecco's modified Eagle's medium (DMEM) containing 3% newborn calf serum, 3% bovine growth serum, 2 mM L-glutamine and 100 IU/mL penicillin and 0.1 mg/mL streptomycin (P/S). HSV-1 #6 and HSV-2 #1 are de-identified clinical isolates from the Saint Louis University Hospital. Stocks were prepared after a single passage in cell culture and were titered by standard plaque assay (Knipe and Spang, 1982). Wild-type HSV-2 used in FIG. 3 was laboratory strain 333. […] Virus stocks were grown and titered on Vero cells (Morrison and Knipe, 1996).
(§1) Compounds to be screened were diluted in PBS supplemented to contain 2% newborn calf serum and 1% glutamine, and added in 100 μL volume to confluent cell monolayers in 24-well cluster plates. Immediately thereafter HSV-1 and HSV-2, diluted in the supplemented PBS medium, were added to the wells in 50 μl volume such that the final concentration of compound was 50 μM and 5 μM and the multiplicity of infection was 0.1. The plates were incubated at 37° C. for 1 hour and then virus-containing inoculum was removed and the wells were washed once in PBS. Compounds, diluted to 50 μM and 5 μM in DMEM supplemented to contain 2% newborn calf serum and 1% each penicillin/streptomycin, were added at 0.5 mL/well. Plates were incubated at 37° C. an additional 23 hr, and then the plates were visually inspected through a phase contrast microscope for cytopathic effect, and for toxic effect. […] The entire contents of each well were collected by scraping. Samples were frozen at −80° C., and then subsequently thawed, sonicated, and infectious virus titer was determined by standard plaque assay on Vero cell monolayers. Because the compounds were dissolved at 10 mM in 100% DMSO, equivalent dilutions of DMSO were added to additional wells as a control for effects of the diluent. Each experiment was repeated once. EC50 values were determined as above except that serial dilutions of the compound to be tested were prepared starting at 50 μM. The inhibitory values were calculated by non-linear curve-fitting in GraphPad Prism.

HSV-2 = assay: Anti-HSV-2 replication assay in Vero cells, titers by plaque assay; type: cell-based, herpes simplex virus 2; settings: for inhibition of wild-type HSV-2, in words: laboratory strain, 24 hr, FIG. 4; for EC50 / log reduction at 5 µM / log reduction at 50 µM: Human alphaherpesvirus 2, Vero, 24 h; for EC50: read-out: HSV-2 EC50; for log reduction at 5 µM: read-out: HSV-2 Log suppression 5 μM; for log reduction at 50 µM: read-out: HSV-2 Log suppression 50 μM
[1] = tested on: TK-deficient mutant of HSV-2 strain 333, ΔTK-; assay: Replication of acyclovir-resistant TK-deficient HSV-2 mutant in Vero cells; type: cell-based, herpes simplex virus 2; settings: 5 μM, 24 hr, FIG. 4
Protocol: FIGS. 4A & 4B. Sensitivity of thymidine kinase-deficient HSV-2 to αHT compounds. […] Duplicate cultures were collected 24 hours post-infection and infectious virus titers were determined by plaque assay. Titers in compound-treated samples were subtracted from DMSO-treated samples. Values are the averages±one standard error of the mean. α-Hydroxytropolones inhibit an ACV-resistant mutant of HSV-2. […] Log10 suppression was determined relative to the diluent control. Data are the averages of data from duplicate samples±ranges from one of two independent experiments at each concentration.
Vero cells were maintained in Dulbecco's modified Eagle's medium (DMEM) containing 3% newborn calf serum, 3% bovine growth serum, 2 mM L-glutamine and 100 IU/mL penicillin and 0.1 mg/mL streptomycin (P/S). HSV-1 #6 and HSV-2 #1 are de-identified clinical isolates from the Saint Louis University Hospital. Stocks were prepared after a single passage in cell culture and were titered by standard plaque assay (Knipe and Spang, 1982). Wild-type HSV-2 used in FIG. 3 was laboratory strain 333. The TK-deficient mutant of HSV-2 strain 333, ΔTK-, contains a 180-bp KpnI-KpnI deletion in the UL23 open reading frame that abrogates TK activity (McDermott, et al, 1984). ΔTK- was the generous gift of Jim Smiley. Virus stocks were grown and titered on Vero cells (Morrison and Knipe, 1996).
HSV TK-deficient mutants are therefore insensitive to ACV. […] Vero cells were infected with a laboratory strain of HSV-2 and an engineered TK-deficient mutant of the same strain.

[2] = Quantitative Vero cell toxicity (MTT); type: cell-based; settings: African green monkey, Vero cells
Protocol: (§2) Qualitative assessments of cytotoxicity were done visually by inspecting the cells in the primary screening assays. For the quantitative assays, cells were plated in 96-well plates at 1.0×10^4 per well. The next day the compounds were added at 0.78 to 100 μM in a final concentration of 1% (v/v) DMSO, and the cells were incubated for 24 hours under conditions identical to those employed for the viral replication inhibition assays. Mitochondrial toxicity was measured by incubating the cells with 0.25 mg/mL thiazolyl blue tetrazolium bromide (MTT, Sigma Aldrich Chemical Co.), the cultures were incubated for 60 min, metabolites were solubilized in acidic isopropanol, and absorbance was read at 570 nm. CC50 values were calculated by non-linear curve fitting using GraphPad Prism.
Quantitative toxicity measurements were conducted for all compounds that suppressed HSV replication by >2 log10 at 5 μM plus a number of compounds with lesser inhibitory activity for comparison. Toxicity was assessed by […]. Cells were plated in 96-well plates at 1.0×10^4 per well. The next day compound was added in concentrations ranging from 0.78 to 100 μM in a final concentration of 1% (v/v) DMSO. The cells were incubated for 24 h under conditions identical to those employed for the viral replication inhibition assays, and then mitochondrial activity was measured with the MTT assay (Sigma Aldrich) according to the manufacturer's instructions. Percent viability was determined for each compound concentration from the […], and then 50% cytotoxic concentrations (CC50) values were calculated by non-linear curve fitting using GraphPad Prism. Consistent with the subjective assessments of toxicity, all compounds selected for quantitative toxicity assessment had CC50 values≥50 μM under these conditions (Table 1).

HBV = HBV replication assay in HepDES19 cells; type: cell-based; settings: Hepatitis B virus; HepDES19 cells; read-out: EC50 (HBV assay)
Protocol: HBV replication assay. Inhibition of HBV replication was measured in HepDES19 cells as previously described (Cai, et al., 2014). Cells were seeded into 6-well plates and incubated in DMEM/F12, 10% fetal bovine serum (FBS), 1% penicillin/streptomycin (P/S) with 1 μg/ml tetracycline. Tetracycline was withdrawn after 24 hours. The test compound was applied to duplicate wells 48 hours later in medium containing a final DMSO concentration of 1%, and medium containing the compound was refreshed daily for the following two days. Cells were harvested and non-encapsidated nucleic acids were digested with micrococcal nuclease (New England Biolabs). HBV DNA was purified from capsids using QIAamp Cador Pathogen Mini Kit (Qiagen) with proteinase K incubation overnight at 37° C. TaqMan PCR was performed for 40 cycles at an annealing temperature of 60° C. Primers and probe (IDT Inc.) for the plus-polarity strand were: 5′[…]3′ (SEQ ID NO: 1); 5′[…]3′ (SEQ ID NO: 2); 5′/56-FAM/[…]/ZEN/[…]/3IABkFQ (SEQ ID NO: 3). Primers and probe for the minus-polarity strand were: 5′[…]3′ (SEQ ID NO: 4); 5′[…]3′ (SEQ ID NO: 5); 5′/56-FAM/[…]/ZEN/[…]/3IABkFQ (SEQ ID NO: 6).

[3] = Cytotoxicity reported with the HBV assay (Table 4); type: cell-based; settings: human, hepatoma cells; read-out: CC50 (HBV assay table)
Protocol: as §2

HSV = assay: Anti-HSV SAR summary, HSV type not separated; type: cell-based, herpes simplex virus; settings: grouped by activity at 50, 5 and 0.5 μM
Protocol: as §1
A series of over 20 synthetic αHTs were synthesized and tested to both confirm the initial SAR, and to provide leads for further optimization pursuits (FIG. 5). […] Specifically, biphenyl-containing molecules #118 and 115 inhibit HSV replication by up to 4 log10 at 200 nM. The increased potency over close analogs #111 and 113 confirmed the importance of added lipophilicity.

[4] = Mouse liver microsome assay; type: in vitro ADME; settings: 1 μM in mouse liver microsomes
Protocol: Microsomal incubations are run at a final P450 concentration of 0.25 μM. The microsomal mixture is composed of 0.1M potassium phosphate containing 3.3 mM MgCl and 1 μM compound (final concentration). The mixture is prewarmed for 5 min at 37° C. To initiate the reaction a 12 mM stock of NAPDH (1.2 mM, final concentration) is added to the warmed microsomal mixture and aliquots are removed at 0, 5, 10, 20 and 30 min. Samples are quenched with ice cold acetonitrile containing internal standard and either 1.8 mM EDTA or EGTA (final concentration). Samples are vortexed and spun down at 3200 rpm for 5 min. The supernant is transferred to 96-deep well plates and run on LC/MS/MS.

HBV replication = assay: Chou-Talalay combination of RNAseH inhibitors with Lamivudine against HBV replication; type: cell-based, Hepatitis B virus; settings: CI <1.0 synergy, ~1.0 additive, >1.0 antagonism
From the text: Additive interactions are shown with the red line, synergistic interactions below the line, and antagonistic interactions are above the line.
Current nucleos(t)ide analog therapy for HBV has converted hepatitis type B from an implacably progressing illness to a controllable disease. However, patients are only very rarely cured, in part due to the incomplete inhibition of HBV replication. The inventors hypothesized that the novel RNaseH inhibitors would work synergistically with the existing nucleos(t)ide analogs because the two classes of drugs target physically distinct active sites on the viral polymerase protein. […] RNAseH inhibitors from two different chemical classes were employed, compound #1 [2-hydroxyisoquinoline-1,3(2H,4H)-dione], an HID, and #46 (β-thujaplicinol), an α-hydroxytropolone, were tested. Chou-Talaly analysis yields a combination index (CI). CI values<1.0 indicate synergy, CIs of approximately 1.0 indicate additive interactions, and CI values>1.0 indicate antagonism. CI values are calculated at various efficacy levels (EC50, EC75, EC90, and EC95), and a weighted CI value favoring higher efficacy levels is also generated. FIGS. 6A & 6B show the results of four experiments employing compound #1 and three with compound #46. […] Therefore, RNAseH inhibitors act strongly synergistically with an approved nucleos(t)ide analog drug against HBV.

[5] = tested on: patient-derived RNAseH enzymes (genotypes B, C and D); assay: Biochemical RNAseH assay with patient-derived variant enzymes; design: species or system Hepatitis B virus
From the text: Four variant patient-derived RNAseH enzymes were expressed as recombinant enzymes, purified, and tested in an RNAseH assay with compounds #1 (FIG. 7A) and #46 (FIG. 7B) at their respective IC50s.
HBV has at least 8 genotypes differing in sequence by 8%. Genetic diversity in the RNAseH domain is about 6%, which is easily high enough to modulate viral sensitivity to RNAseH inhibitors. Therefore, the inventors tested the RNAseH inhibitors #1 [2-hydroxyisoquinoline-1,3(2H,4H)-dione], an HID, and #46 (β-thujaplicinol), an α-hydroxytropolone, for the ability to inhibit variant RNAseHs. Twelve purified, patient-derived RNAseH enzymes (4 from each genotypes B, C and D) were tested with the compounds at their respective IC50 values in a biochemical RNAseH assay. […] Therefore, HBV's high genetic variation is unlikely to present a substantial barrier to drug development.

[6] = 5 μM, moi 0.1, 24 h, vs DMSO, +/− are qualitative, key not given
[7] = 50 μM, moi 0.1, 24 h, vs DMSO, +/−/T are qualitative, key not given

SMILES	EC50 (HSV-1) [µM]	log reduction at 5 µM (HSV-1)	log reduction at 50 µM (HSV-1)	inhibition of wild-type HSV-2, in words (HSV-2; 5 μM)	EC50 (HSV-2) [µM]	log reduction at 5 µM (HSV-2)	log reduction at 50 µM (HSV-2)	inhibition of the TK-mutant strain, in words [1]	CC50 at 24 h [2] [µM]	other results
COC(=O)c1c(C)cc(O)c(=O)c(O)c1O [Compound 196]	0.1	4.17	3.99	efficiently inhibited	2.57	4.05	4.56	efficiently inhibited	> 100	log reduction at 1.5 µM (HSV-1; read-out: HSV-1 Log suppression 1.5 μM): 3.82; EC50 (HBV): 6.5 µM; CC50 at 24 h [3]: 13 µM
Cc1cc(O)c(=O)c(O)cc1-c1ccc(-c2ccccc2)cc1 [Compound 115]	0.13	4.26	4.14	efficiently inhibited	0.13	4.52	5.11	efficiently inhibited	> 100	anti-HSV SAR group, in words (HSV): highly inhibitory at much lower concentrations; also recorded: fully inhibitory at 0.5 μM; Non-P450 turn-over [4]: No; half-life at 1 μM ([4]; read-out: t ½): 18 min; ER ([4]; extraction ratio): 0.76; CLint scaled at 1 μM ([4]; mouse, liver microsomes): 17.1 L/h/kg; predicted hepatic clearance at 1 μM ([4]; mouse, liver microsomes, read-out: CL ′hep): 4.08 L/h/kg
Nc1nc2c(ncn2COCCO)c(=O)[nH]1 [ACV, Acyclovir, reference compound]	–	–	–	–	–	–	–	little effect	> 100	log reduction at 5 µM (HSV-1; [6]): 4.22; log reduction at 50 µM (HSV-1; [7]): 5.39; log reduction at 5 µM (HSV-2; [6]): 3.6; log reduction at 50 µM (HSV-2; [7]): 4.73
O=C1Cc2ccccc2C(=O)N1O [Compound 1, 2-hydroxyisoquinoline-1,3(2H,4H)-dione]	–	–	–	–	–	–	–	–	–	weighted CI value (combination index) with Lamivudine (HBV replication): 0.70±0.1; inhibition of four genotype D RNAseH enzymes ([5]; compound at its IC50, FIGS. 7A & 7B): about 50%; inhibition of all 12 variant RNAseH enzymes, in words ([5]; compound at its IC50, genotypes B, C and D): Equivalent results
